# Reference: patent US8142764B2, “Synthetic biofilm-inhibiting peptides” (priority 2008, dated 2012)
# “Also recorded” adds a separate entry of the source. Where no end group is shown, it is not given here.
# Experiments:
# [1] = tested on: proteolytic activity of P. gingivalis; type: cell-based, Porphyromonas gingivalis; conditions: intact cells pre-treated with inhibitor
# From the text: Inhibition of protease activity. The proteolytic activity of P. gingivalis was inhibited using a bacterial protease inhibitor cocktail (Sigma, St. Louis, Mo.) containing the following inhibitors: 4-(2-Aminoethyl)benzenesulfonyl fluoride hydrochloride (AEBSF), N-(trans-epoxysuccinyl)-L-leucine 4 guanidinobutylamide (E-64), sodium ethylenediaminetetra-acetate (EDTA), bestatin and pepstatin A. The inhibitor cocktail was suspended in dimethylsulfoxide (DMSO) (Sigma, St. Louis, Mo.) at the concentration recommended by the manufacturer.
# [2] = tested on: P. gingivalis/S. gordonii biofilm; assay: Inhibition of P. gingivalis adherence and biofilm formation on S. gordonii (open flow cell, confocal microcolony count); type: cell-based, Porphyromonas gingivalis; conditions: for inhibition of biofilm formation: peptide 3.38 μM
# Procedure: P. gingivalis adherence and biofilm formation. The adherence of intact P. gingivalis to S. gordonii cells and the subsequent formation of biofilms was carried out using an open flow system essentially as previously described by Amorin Daep et al. Infect Immun 74:5756-62 (2006) and Lamont et al. Microbiology 148:1627-36 (2002). The flow reactor comprised a Manostat Carter 4/8 cassette peristaltic pump (Fisher Scientific, Suwanee, Ga.) using 0.89 millimeter platinum-cured silicone tubing (Fisher Scientific, Suwanee, Ga.) and a BST FC 71 flow cell (Biosurface Technologies, Corp, Bozeman, Mont.). A single surface of a 15×40 mm cover glass (Fisher Scientific, Suwanee, Ga.) was coated with 0.22 μm filter sterilized saliva and incubated at 37° C. for 30 minutes. The saliva coated coverglass was then washed with sterile 1×PBS at a flow rate of 6 ml per hour for 30 minutes to remove unbound salivary constituents.
# S. gordonii DL-1 cells were harvested by centrifugation at 4000 rpm at 4° C. for 15 minutes and suspended in 25 ml of sterile 1×PBS. S. gordonii cells were labeled with 20 μl of hexidium iodide (1.6 mg/ml, Molecular Probes, Eugene, Oreg.) at 25° C. for 30 minutes in the dark and washed with PBS. Adherence of streptococci to the saliva coated cover glass was carried out by delivering S. gordonii cells to the flow chamber at a flow rate of 6 ml per hour for approximately 2 hours. Following inoculation with S. gordonii, the flow cell was washed with sterile 1×PBS for 30 minutes at 6 ml per hour to remove non-adherent bacteria from the cover glass.
# P. gingivalis ATCC 33277 cells were harvested by centrifugation at 4000 rpm at 4° C. for 45 minutes, suspended in 25 ml of sterile 1×PBS, and introduced into the flow cell at a flow rate of 6 ml per hour for 2 hours at 25° C. to allow P. gingivalis to adhere and accumulate on the streptococcal substrate. Flow cells were subsequently washed with sterile 1×PBS to remove non-adherent P. gingivalis cells. To visualize adherent P. gingivalis, rabbit anti-P. gingivalis 33277 polyclonal antibody diluted 3:5000 in 5 ml of sterile 1×PBS was flowed into the cell at a rate of 6 ml per hour. The flow cell was then washed with sterile 1×PBS for 1 hour, reacted with anti-rabbit IgG fluorescein isothiocyanate (FITC) conjugate (Sigma, St. Louis, Mo.) in sterile 1×PBS (1:5000) for 1 hour at 6 ml per hour, and received a final wash with sterile 1×PBS as above. Under these conditions, the streptococci bound to the saliva coated coverglass as a non-confluent layer comprising single cells and small aggregates. P. gingivalis subsequently adhered to and formed distinct microcolonies on the immobilized streptococci. The microcolonies were visualized and quantified by confocal microscopy as described below.
# Confocal microscopy and analysis of P. gingivalis biofilms. P. gingivalis-S. gordonii biofilms were visualized using an Olympus FluoView 500 confocal laser scanning microscope (Olympus, Pittsburgh, Pa.) under 600× magnification using an Argon laser for visualization of FITC labeling and the HeNe-G laser to visualize hexidium iodide labeled streptococci. The number and depth of FITC-labeled P. gingivalis microcolonies was determined from 30 to 60 randomly chosen frames using the FluoView software package provided by Olympus. Microcolony depth was determined by performing Z-plane scans from 0 μm to 30 μm above the coverglass surface. P. gingivalis microcolonies that formed on S. gordonii in the absence of peptide inhibitor ranged from 7 to 16 μm in depth under the experimental conditions used.
# Inhibition of P. gingivalis adherence and bioflim formation. […] The P. gingivalis-peptide suspension was then introduced into the flow cell for 2 hours at a flow rate of 6 ml per hour as described above and P. gingivalis microcolonies were analyzed by confocal microscopy. Data was analyzed using GraphPad InStat3 (GraphPad Software Co.).
# [3] = Circular dichroism (CD) spectroscopy, K2D secondary structure estimate; type: physicochemical; conditions: 1.4 mM peptide in phosphate buffer
# Procedure: Circular dichroism (CD) spectroscopy. CD experiments were carried out at 25° C. using Jasco J-810 spectropolarimeter (Jasco, Easton, Md.). A 40 μl sample of peptide at a concentration of 1.4 mM in filter sterilized 0.1 M phosphate buffer (pH=7.2) was analyzed in a 0.01 cm quartz cuvette (Starna Cells, Inc., Atascadero, Calif.) using the following parameters: sensitivity=100 mdeg, start wavelength=340 nm, end wavelength=180 nm, continuous scanning mode at 200 nm/minute, response=1 second, and bandwidth=1 nm. Nitrogen was flushed into the system at a rate of […] during each experiment. A total of 10 scans were accumulated and averaged and the appropriate blanks were subtracted from the spectra. The resulting spectra were expressed in molar ellipticity. Normalized CD data were analyzed using K2D software (on the world-wide web at embl-heidelberg.de/˜andrade/k2d.html)) to estimate α-helical, β-sheet, and random coil content.
# [4] = tested on: P. gingivalis/S. gordonii biofilm; conditions: 0.3 μM
# Procedure: P. gingivalis biofilm formation with S. gordonii. The formation of dual species P. gingivalis/S. gordonii biofilms was carried out essentially as previously described by Lamont et al (2002. Microbiology 148:1627-36.) and Daep et al. (Immun 74:5756-62 (2006); Infect Immun 76:3273-80 (2008)). The bacterial biofilms were cultured using a Manostat Carter 4/8 cassette peristaltic pump (Fisher Scientific, Suwanee, Ga.) with 0.89 millimeter platinum-cured silicone tubing (Fisher Scientific, Suwanee, Ga.) and BST FC 71 flow cells (Biosurface Technologies, Corp, Bozeman, Mont.). […]
# P. gingivalis cells were harvested by centrifugation at 4000 rpm at 4° C. for 45 minutes, suspended in 20 ml of sterile 1×PBS, and introduced into the flow cell at a flow rate of 6 ml per hour for 2 hours to allow the bacteria to adhere and accumulate on the streptococcal substrate. […] P. gingivalis microcolonies bound to immobilized streptococci were quantified by confocal microscopy as described below.
# The bacteria were incubated with 0 and 0.845 μM peptide at ambient temperature for 30 minutes and introduced into the flow cell containing an existing streptococcal substrate for 2 hours at a flow rate of 6 ml per hour. Biofilm formation was analyzed by confocal microscopy as described below. Data was analyzed using GraphPad InStat3 software (GraphPad Software Co.) using a non-parametric analysis of variance (ANOVA). […]
# [5] = molecular target: Mfa1 (Porphyromonas gingivalis, UniProt B2RHG1); conditions: read-out: dissociation constant of the BAR-Mfa1 interaction; previously calculated; cited from earlier work
# Mfa1, sequence (B2RHG1 50-563): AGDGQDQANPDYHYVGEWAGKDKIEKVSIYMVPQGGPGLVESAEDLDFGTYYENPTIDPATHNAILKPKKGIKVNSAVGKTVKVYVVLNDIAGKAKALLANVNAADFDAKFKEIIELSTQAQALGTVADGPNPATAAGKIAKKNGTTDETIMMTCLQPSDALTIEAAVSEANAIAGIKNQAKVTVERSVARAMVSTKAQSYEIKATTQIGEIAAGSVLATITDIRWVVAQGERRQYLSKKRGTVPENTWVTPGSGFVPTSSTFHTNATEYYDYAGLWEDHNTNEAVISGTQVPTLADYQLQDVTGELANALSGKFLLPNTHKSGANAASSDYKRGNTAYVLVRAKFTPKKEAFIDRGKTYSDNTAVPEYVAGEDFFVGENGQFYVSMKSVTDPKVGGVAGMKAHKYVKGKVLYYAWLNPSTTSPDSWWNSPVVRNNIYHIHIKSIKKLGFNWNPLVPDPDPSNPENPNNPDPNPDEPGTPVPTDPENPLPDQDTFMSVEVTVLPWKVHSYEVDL
# [6] = tested on: proteases produced by P. gingivalis; assay: Proteolytic degradation of BAR by P. gingivalis cells, culture supernatant or extracts (tricine gel, densitometry); type: in vitro ADME, Porphyromonas gingivalis
# Procedure: Proteolytic degradation of BAR by P. gingivalis. One milliliter of mid-exponential phase cultures of P. gingivalis SMF, P. gingivalis KDP128, P. gingivalis KDP129, or P. gingivalis E8 was centrifuged at 8000 rpm for 5 minutes at 4° C. The bacterial pellet was washed 3 times with 1 ml of sterile 1×PBS (100 mM sodium phosphate, pH 7.4, 150 mM NaCl). […] For some experiments, digital images of the stained gels were obtained using Epson Stylus CX3810 flatbed scanner (Espson America, Inc., Long Beach, Calif.) and analyzed by densitometry using ImageJ software (found on the world-wide-web at rsbweb.nih.gov/ij/).
compound,measurement,setting,value
"Cl.NCCc1ccc(S(=O)(=O)F)cc1 [AEBSF, 4-(2-Aminoethyl)benzenesulfonyl fluoride hydrochloride]",concentrations that prevent cleavage of BAR by P. gingivalis (in words),[1],mM range
LQAAPKKVQDLLKKANITVKGAFQLFS [BAR-XIV],inhibitory activity compared to BAR (in words),[2]; peptide 1.7 μM,significant decrease in inhibitory activity
same,restoration of inhibitory activity (in words),[2]; peptide 17 μM,did not show partial or full restoration
LEAAPKKVQDLLKKARITIKGAFQLFS [BAR-II],α-helix content,[3],28%
same,biofilm inhibitory activity (in words),[2],more potent inhibitor of P. gingivalis adherence and biofilm development than BAR
same,fold difference in I50 / potency relative to BAR,[2]; I50 0.52 μM versus 1.25 μM,approximately 2.5 fold
same,IC50,"[2]; P. gingivalis pre-incubated with peptide, streptococcal substrate, read-out: I50 for inhibition of P. gingivalis adherence and biofilm formation",520 nM
same,inhibition of P. gingivalis microcolony formation,[2]; peptide 0.34 μM,25%
same,inhibition of P. gingivalis microcolony formation,[2]; peptide 0.85 μM,82%
CC(C)C[C@H](NC(=O)[C@@H](O)[C@H](N)Cc1ccccc1)C(=O)O [bestatin],concentrations that prevent cleavage of BAR by P. gingivalis (in words),[1],mM range
"CC(C)C[C@H](NC(=O)[C@H]1O[C@@H]1C(=O)O)C(=O)NCCCCN=C(N)N (relative stereo) [E-64, N-(trans-epoxysuccinyl)-L-leucine 4 guanidinobutylamide]",concentrations that prevent cleavage of BAR by P. gingivalis (in words),[1],mM range
LEAAPKKVQDLLKKANITVKGAFQLFS [BAR],inhibition of P. gingivalis microcolony formation,[2]; peptide 0.34 μM,3%
same,inhibition of P. gingivalis microcolony formation,[2]; peptide 0.85 μM,7%
same,inhibition rate of P. gingivalis/S. gordonii biofilm formation,[2]; peptide 1.7 μM,80%
same,inhibition of biofilm formation,[2],~75%
same,inhibitory activity on biofilm formation,[4],~50%
same,Kd,[5],~900 nM
same,degradation by P. gingivalis 33277 (in words),"[6]; 5 μg BAR, wild type cells",immediate degradation
same,degradation by P. gingivalis culture supernatant (in words),"[6]; 5 μg peptide, 37° C., 0 to 60 minutes",more slowly degraded; also recorded: time dependent degradation
same,proteolytic cleavage by P. gingivalis culture extracts (in words),"[6]; 1 hour incubation, 10-20% Tris-Tricine gel",slowly degraded
same,relative density (R.D.) of remaining BAR peptide,"[6]; E8 whole cells, within 5 minutes (first value of 'R.D.=32.5 vs. 21.6')",32.5
same,relative density (R.D.) of remaining BAR peptide,"[6]; P. gingivalis SMF1 with rMfa1, T=5 minutes, loading control R.D.=61.07",47.3
same,relative density (R.D.) of remaining BAR peptide,"[6]; P. gingivalis SMF1 with rMfa1, T=30 minutes, loading control R.D.=61.07",8.2
same,relative density (R.D.) of remaining BAR peptide,"[6]; P. gingivalis SMF1 without rMfa1, T=5 minutes, loading control R.D.=61.07",−5.75
same,relative density (R.D.) of remaining BAR peptide,"[6]; P. gingivalis SMF1 without rMfa1, T=30 minutes, loading control R.D.=61.07",−20.32
same,relative density (R.D.) of remaining BAR peptide,"[6]; gingipain deficient P. gingivalis KDP128, T=5 minutes, loading control R.D.=115.85",96.23
same,relative density (R.D.) of remaining BAR peptide,"[6]; gingipain deficient P. gingivalis KDP128, T=10 minutes, loading control R.D.=115.85",115.85
same,"degradation by P. gingivalis E8 (lacks Arg-X gingipains), in words",[6]; intact cells,rapidly degraded; also recorded: immediate degradation
same,"degradation by P. gingivalis KDP128 (lacks Lys-X and Arg-X gingipains), in words",[6]; intact cells,Little degradation was observed after incubation for 10 minutes; also recorded: attenuated proteolytic activity against the peptide
same,"degradation by P. gingivalis KDP129 (lacks Lys-X gingipains), in words",[6]; intact cells,attenuated degradation; also recorded: Little degradation was observed
same,degradation by intact P. gingivalis cells in the presence of purified Mfa1 (in words),[6]; pre-incubation with Mfa1,little degradation occurred after 5 minutes; also recorded: protection from proteolytic degradation
same,"relative density (R.D.) of remaining BAR peptide, comparator","[6]; second value of 'R.D.=32.5 vs. 21.6', apparently wild type 33277, 5 minutes",21.6
LEAAPKKVPGLLKKANITVKGAFQLFS [BAR-X],inhibition of biofilm formation,[2],~15%
"O=C([O-])CN(CCN(CC(=O)[O-])CC(=O)[O-])CC(=O)[O-].[Na+].[Na+].[Na+].[Na+] [EDTA, sodium ethylenediaminetetra-acetate]",concentrations that prevent cleavage of BAR by P. gingivalis (in words),[1],mM range
